Data taken from BindingDB's records for patent US20250289812 (Shanghai Institute Of Materia Medica, 2025).
pKd: −log10 of the molar value.

Target: T1, Proto-oncogene tyrosine-protein kinase Src [84-145] (UniProt P12931)
T1 construct: 84-145
Experiment: Surface Plasmon Resonance Experiment
Method: Experimental method: Surface plasmon resonance test was carried out on BIACORE T200 instrument (GE Company). Fresh purified grade Src kinase SH3 domain protein (concentration 2 mg/ml) was diluted to 0.1 mg/ml with 10 mM CH3COONa (pH 4.2) and then SH3 protein was coupled to the CM5 chip by standard amino coupling methods. The compounds of the invention were diluted in a gradient using a buffer solution (20 mM Tris-HCl, PH 8.0, 100 mM NaCl) for 60 seconds and dissociated for 120 seconds at a flow rate of […], respectively. The changes in response values over time were recorded and analyzed by the BIA Evaluation Software (GE Healthcare) program to obtain the dissociation constants KD for the different compounds with SH3 protein.

SMILES	pKd
COc1cnc2c(c1)c(C(N)=O)c(CNC(=N)N)n2C [US20250289812, Example SYY-C036]	> 6.00
CCOC(=O)c1c(CNC(=N)N)n(C)c2cc(C3CC4CCC3C4)ccc12 (configuration not stated) [US20250289812, Example SYY-C069]	> 6.00
